From patent US7381541B2, “Methods for producing animal feed preparations with astaxanthin-containing plants or parts of plants of the genus Tagetes” (SunGene GmbH & Co. KGaA, priority 2002, dated 2008)

Test system: trout
Experiment: Oral administration to trout in a standard trout feed: examination of bioavailability, pigmenting and performance parameters
Assay type: in vivo
Conditions: 8 weeks
Method: The trout feed comprising the inventive astaxanthin pigments is produced in accordance with Example IV and administered orally to trout (mean live mass 180 g). 3 concentrations are tested: 10, 20 and 40 mg of astaxanthin from the inventive astaxanthin pigmenting per kg of diet.
The trout are raised as described hereinafter: • The trout are given as standard an adaptation phase of 14 days. • During the feeding experiment, 10 trout are kept per pool in constant-flow plastic tanks of volume 80 l of water. The water temperature is 15° C. The water is biologically purified and at least 10% of the total amount of water is replaced by fresh water per day. • The illumination period is 12 hours per day to avoid premature sexual maturation of the animals. • The number of pools per treatment is 3. This is equivalent to 30 trout per dose level. • The diets are stored at −20° C. to avoid astaxanthin losses. The feed is thawed by portions (weekly) and administered. • The experimental period is 8 weeks. […]
The average feed consumption per fish, feed conversion and live mass gain are statistically evaluated.
The pigmenting of the fish is measured by reflectance spectrophotometric measurements (Minolta a value =red value at the fillet incision) and by determining the astaxanthin content (mg/kg) in the fillet in each case compared with the negative control.

CC1=C(/C=C/C(C)=C/C=C/C(C)=C/C=C/C=C(C)/C=C/C=C(C)/C=C/C2=C(C)C(=O)[C@@H](O)CC2(C)C)C(C)(C)C[C@H](O)C1=O [synthetic astaxanthin, astaxanthin]
performance parameters (feed intake, feed utilization, live mass gain): differences between or within treatments: no statistically secured differences
